In ChEMBL document CHEMBL1681662, “A new structural alert for benzimidazoles: 2,6-dimethylphenyl substituents increase mutagenic potential and time-dependent CYP3A4 inhibition risk” (Bioorg Med Chem Lett, 2011):
pIC50: −log10 of the molar value. One block for each compound: values may come before it. Activity calls are given as the source filed them. The rule behind the calls is not given here.

What was measured:
Salmonella typhimurium [1] = assay: Mutagenic activity in Salmonella Typhimurium TA98 assessed as fold increase in maximum revertant at 100 ug by Ames test; format: functional
Salmonella typhimurium [2] = assay: Mutagenic activity in Salmonella Typhimurium TA98 assessed as fold increase in maximum revertant at 300 ug by Ames test in presence of S9 fraction; format: functional
Salmonella typhimurium [3] = assay: Mutagenic activity in Salmonella Typhimurium TA100 assessed as fold increase in maximum revertant at 1000 ug by Ames test; format: functional
Salmonella typhimurium [4] = assay: Mutagenic activity in Salmonella Typhimurium TA100 assessed as fold increase in maximum revertant at 1000 ug by Ames test in presence of S9 fraction; format: functional
Cytochrome P450 3A4 [5] = biological target: T1, Cytochrome P450 3A4 (Homo sapiens, UniProt P08684); assay: Inhibition of CYP3A4; format: ADME
T1 sequence (P08684 whole entry): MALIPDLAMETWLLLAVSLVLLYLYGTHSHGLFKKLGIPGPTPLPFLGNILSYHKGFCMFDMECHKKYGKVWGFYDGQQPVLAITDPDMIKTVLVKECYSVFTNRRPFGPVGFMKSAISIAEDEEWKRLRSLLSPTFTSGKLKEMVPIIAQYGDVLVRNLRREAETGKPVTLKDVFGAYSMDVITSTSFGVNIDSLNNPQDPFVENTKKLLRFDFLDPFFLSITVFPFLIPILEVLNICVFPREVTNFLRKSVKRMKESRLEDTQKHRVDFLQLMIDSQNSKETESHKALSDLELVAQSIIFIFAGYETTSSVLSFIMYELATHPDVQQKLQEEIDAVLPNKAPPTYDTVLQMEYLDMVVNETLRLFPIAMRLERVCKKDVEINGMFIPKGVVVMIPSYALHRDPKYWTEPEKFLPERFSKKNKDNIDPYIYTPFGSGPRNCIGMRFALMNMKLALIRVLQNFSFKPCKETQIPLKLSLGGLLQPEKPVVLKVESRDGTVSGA

Cytochrome P450 3A4 [6] = biological target: T1, Cytochrome P450 3A4; assay: Inhibition of CYP3A4 in human liver microsome measured after 30 mins preincubation in presence of NADPH; format: ADME, microsomes
[7] = Salmonella enterica subsp. enterica serovar Typhimurium

Structure (SMILES): O=C(O)CCc1cc(Cl)c(-c2nc3ccc(C(=O)Nc4ccc5ccccc5n4)cc3[nH]2)c(Cl)c1
- Activity (Salmonella typhimurium [1]; [7]): inactive
- Activity (Salmonella typhimurium [2]; [7]): inactive

Structure (SMILES): O=C(Nc1ccc2ccccc2n1)c1ccc2nc(-c3c(Cl)cc(CCCP(=O)(O)O)cc3Cl)[nH]c2c1
- Activity (Salmonella typhimurium [3]; [7]): inactive
- Activity (Salmonella typhimurium [4]; [7]): inactive

Structure (SMILES): Cc1cc(CCC(=O)O)cc(C)c1-c1nc2ccc(C(=O)Nc3ccc4ccccc4n3)cc2[nH]1
- fold change (FC) (Salmonella typhimurium [1]): 5.86
- fold change (FC) (Salmonella typhimurium [2]): 14.57

- pIC50 (Cytochrome P450 3A4 [5]): 5.14
- pIC50 (Cytochrome P450 3A4 [6]): 5.57
Structure (SMILES): Cc1cccc(C)c1-c1nc2ccc(C(=O)Nc3ccc4ccccc4n3)cc2[nH]1

- pIC50 (Cytochrome P450 3A4 [5]): < 4.30
- pIC50 (Cytochrome P450 3A4 [6]): < 4.30
Structure (SMILES): Cc1ccccc1-c1nc2ccc(C(=O)Nc3ccc4ccccc4n3)cc2[nH]1

Structure (SMILES): Cc1cc(CCCP(=O)(O)O)cc(C)c1-c1nc2ccc(C(=O)Nc3ccc4ccccc4n3)cc2[nH]1
- fold change (FC) (Salmonella typhimurium [3]): 2.48
- fold change (FC) (Salmonella typhimurium [4]): 2
